The source made the active and inactive calls.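 Rule for the calls: active = in confirmatory dose-response testing, peak deubiquitinase inhibition of 30% or more; inactive = the rest.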
Molecular target: Ubiquitin carboxyl-terminal hydrolase 28 (Homo sapiens) (UniProt Q96RU2)
Assay: Ubiquitin-specific peptidase 28 DUB inhibitors, biochemical concentration-dependence assay, validation of primary screening hits (AID 1645866)
Conditions: purified USP28, ubiquitin-rhodamine fluorescence, 30 min

Ubiquitin carboxyl-terminal hydrolase 28 (Homo sapiens), sequence (Q96RU2 whole entry, looked up): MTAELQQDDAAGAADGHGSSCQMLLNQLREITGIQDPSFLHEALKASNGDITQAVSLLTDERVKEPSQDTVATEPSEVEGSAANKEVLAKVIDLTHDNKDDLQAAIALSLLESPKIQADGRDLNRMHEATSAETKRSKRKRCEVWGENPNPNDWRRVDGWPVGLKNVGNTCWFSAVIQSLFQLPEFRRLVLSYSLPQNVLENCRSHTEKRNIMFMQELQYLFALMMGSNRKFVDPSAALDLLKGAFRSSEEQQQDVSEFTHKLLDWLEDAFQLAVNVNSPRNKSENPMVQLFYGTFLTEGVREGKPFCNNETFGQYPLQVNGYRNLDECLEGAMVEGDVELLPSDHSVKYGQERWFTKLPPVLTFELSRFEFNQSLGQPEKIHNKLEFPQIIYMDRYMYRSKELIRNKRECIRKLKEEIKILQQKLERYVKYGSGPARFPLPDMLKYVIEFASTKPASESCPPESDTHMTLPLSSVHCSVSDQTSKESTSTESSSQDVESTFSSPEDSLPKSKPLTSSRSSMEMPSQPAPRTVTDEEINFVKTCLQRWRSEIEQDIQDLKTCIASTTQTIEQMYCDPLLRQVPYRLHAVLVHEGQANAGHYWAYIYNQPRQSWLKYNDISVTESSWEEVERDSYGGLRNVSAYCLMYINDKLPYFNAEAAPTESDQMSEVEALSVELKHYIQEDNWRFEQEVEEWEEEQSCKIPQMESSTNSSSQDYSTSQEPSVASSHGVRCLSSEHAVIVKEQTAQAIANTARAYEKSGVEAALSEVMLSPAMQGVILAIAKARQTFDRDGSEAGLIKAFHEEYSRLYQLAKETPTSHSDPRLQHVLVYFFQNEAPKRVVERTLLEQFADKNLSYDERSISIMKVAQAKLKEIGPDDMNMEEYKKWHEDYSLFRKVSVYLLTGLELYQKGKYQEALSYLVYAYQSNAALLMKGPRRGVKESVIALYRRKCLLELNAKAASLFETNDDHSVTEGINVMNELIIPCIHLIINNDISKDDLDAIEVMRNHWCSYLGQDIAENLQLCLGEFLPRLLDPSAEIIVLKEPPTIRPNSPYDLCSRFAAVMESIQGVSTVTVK

IC50, inactive:
CC(C)N(C(=O)Cn1c(=O)[nH]c2ccccc21)c1ccccc1 > 50 µM
COc1ccc2cc1Oc1cc(ccc1OC)C(O)C13SSC4(C(=O)N1C)C(O)C1=COC=CC(OC2=O)C1N4C3=O (stereo unspecified) > 50 µM
Cn1c(CCN2CCCC2)nc2cc(NS(=O)(=O)c3ccccc3)ccc21 > 50 µM
CC(C)(C)c1cc(C[C@@H]2C[C@H](NC(=O)N3CCOCC3)C2(C)C)no1 > 50 µM
O=C(/C=C/c1ccccc1)N1CCN(C2=NS(=O)(=O)c3ccccc32)CC1 > 50 µM
CCOC(=O)C1C(c2ccc(Br)cc2)C2(C(=O)c3ccccc3C2=O)C2C=Cc3ccccc3N12 (stereo unspecified) > 50 µM
Cc1ccc(Nc2nc(Nc3cccc(Cl)c3)nc3nccnc23)cc1 > 50 µM
COc1ccc(-c2cc(C(F)F)n3ncc(C(=O)Nc4ccc5c(c4)OCCO5)c3n2)cc1 > 50 µM
CCCNc1cc(-c2ccccc2)nc2nc(-c3cccnc3)nn12 > 50 µM
C=C1CCC2[C@](C)(CCC[C@]2(C)C(=O)OC)[C@H]1CCc1ccoc1CNC(C)C (stereo partly specified) > 50 µM
Cc1nn(-c2ccc(Cl)cc2)c2[nH]c(=O)c(CNCC3CCCO3)cc12 (stereo unspecified) > 50 µM
COc1ccc(-c2cnnn2-c2ccc(NC(=O)c3c(F)cccc3F)cc2)cc1OC > 50 µM
Cc1ccc2c(c1C)NC(=O)[C@]21[C@@H]2C(=O)N(c3cc(Cl)ccc3Cl)C(=O)[C@@H]2[C@@H]2CCCN21 > 50 µM
COc1ccc2nc(Nc3ncc4c(n3)CCCC4=O)nc(C)c2c1 > 5 µM
Fc1ccc(Nc2nc(Nc3cccc(F)c3)nc3nccnc23)cc1 > 50 µM
COc1ncccc1CN1CCn2c(Cn3cncn3)cnc2C1C (stereo unspecified) > 50 µM
CC(=O)N1CCCC(c2nc(C)cc(-c3cc(F)ccc3C(=O)O)n2)C1 (stereo unspecified) > 50 µM
CC1CCN(c2nnc(-c3nc(C4CC4)no3)c3ccccc23)CC1 > 50 µM
CCCN1CCN(C(=O)c2cc(NC(=O)C3CCC3)cc3nc(C)ccc23)CC1 > 50 µM
Cc1cccc(O)c1-c1nc2c(-c3nc4c(C(=O)O)cccc4o3)cccc2o1 > 50 µM
Cn1c(CN2CCCCCC2)nc2cc(NC(=O)c3ccccc3)ccc21 > 50 µM
CC(=O)NCc1nc(-c2ccc3c(c2)nc(C)c(=O)n3C2CCCC2)no1 > 50 µM
CCN(CC(=O)Nc1cc(C)on1)c1cccc2ccccc12 > 50 µM
COc1ccc(C(=O)CSc2nnc(-c3cccnc3)n2-c2ccccc2)cc1 > 50 µM
Cc1cc(C)nc(SCCn2c(N3CCC(Cc4ccccc4)CC3)nc3c2c(=O)n(C)c(=O)n3C)n1 > 50 µM
O=C(Nc1cccc(F)c1)c1ncoc1-c1ccco1 > 50 µM
CC(=O)c1ccc(N2C(=O)N(Cc3cccc([N+](=O)[O-])c3)c3ccccc3S2(=O)=O)cc1 > 50 µM
O=C(COc1nsnc1N1CCOCC1)Nc1ccc(F)c(F)c1 > 50 µM
COc1ncccc1CN1CCn2c(Cn3cccn3)cnc2C1C (stereo unspecified) > 50 µM
CCOC(=O)c1cc2c(ccn2C)n1CC(=O)N1CCC(C)CC1 > 50 µM

IC50, active:
COc1ccc(NC(=O)C2[C@@H]3C(=O)N(C4CCCCC4)C(=O)[C@@H]3[C@H]3c4ccccc4C=CN23)cc1 (stereo partly specified) 36.9 µM
Cc1ccc(-c2nc(-c3ccccc3)c(S(=O)(=O)CC(=O)Nc3ccc(C)c(C)c3)[nH]2)cc1 42.3 µM
CCCCn1c(=O)c(CCC(=O)OCC(=O)Nc2ccc3c(c2)OCCO3)nc2ccccc21 3.65 µM
CCCn1c(=O)c(-c2ccc(C(=O)NCc3ccc(OC)cc3)cc2)nc2cccnc21 1.8 µM
CCOC(=O)c1ccc(NC(=O)Cn2c(=O)n(CC(=O)NCCc3ccc(OC)c(OC)c3)c(=O)c3sccc32)cc1 1.96 µM
O=C(Cn1nnc(-c2ccc(F)cc2)n1)NCCc1ccccc1 44.3 µM
CC1=C(c2ccc(F)cc2)S(=O)(=O)N=C1Nc1ccc(Cl)cc1 28.1 µM
Cc1ccc(NC(=O)CCC(=O)Nc2ccc3nc(N4CCCCC4)cc(C)c3c2)c(Br)c1 22.7 µM
O=C(Nc1ccccc1)c1cn2c3c(cccc3c1=O)CC2 31.9 µM
Nc1c(-c2ccc(Cl)cc2)cnc2cc(-c3ccc(Cl)c(Cl)c3)nn12 3.28 µM
CC1(C(=O)NCc2ccccc2)Cn2c(cc3ccccc32)C(=O)N1Cc1ccccc1 (stereo unspecified) 48.7 µM
COc1ccc(-c2cc(-c3nnc4n3CCCCC4)n(-c3ccccc3)n2)cc1 20.1 µM
Cc1nn(Cc2ccccc2)c2sc(C(=O)Nc3nc4ccccc4[nH]3)cc12 20.8 µM
O=C(NCc1ccc2c(c1)OCO2)c1cc2c(s1)-c1ccccc1OC2 7.07 µM
CCOc1ccc2c(c1)c(=O)c(C(=O)c1ccc(C)cc1)cn2CC(=O)Nc1ccc(OC)c(OC)c1 0.686 µM
COc1cc(C#N)c(NC(=NCc2ccc(F)cc2)SC)cc1OC 22.5 µM
O=C(NCc1ccc(-c2nc3cnccc3o2)cc1)c1cc2ccccc2o1 4.43 µM
CC1OC2CC(O)C1(O)C1=C2C(O)=C(C(N)=O)C(=N)C1=O (stereo unspecified) 12.3 µM
CC(C)c1nc2sc3c(NCc4ccco4)ncnc3c2c2c1CCC2 3.08 µM
COc1ccccc1-c1nc2c3c(C)c(C)n(-c4ccc(Br)cn4)c3ncn2n1 2.07 µM
Cn1c(=O)c2cc(C(=O)Nc3ccc(F)cc3)cnc2n(C)c1=O 20.8 µM
COc1ccc(COc2ccc3c(C)c(CC(=O)N4CC[C@@]5(O)CCCC[C@H]5C4)c(=O)oc3c2)cc1 2.27 µM
CCOc1ccc2[nH]c3c(=O)n(CCc4ccc(OC)cc4)cnc3c2c1 5.81 µM
CCOc1ccc(-c2ccc3nnc(SCC(=O)Nc4cccc(C(C)=O)c4)n3n2)cc1 1.65 µM
CCOc1ccc(NC(=O)COc2cccc3c2CCN(CC)C3=O)cc1 4.24 µM
CCc1nc(SCC(=O)Nc2ccccc2Cl)c2oc3ccccc3c2n1 0.37 µM
Fc1cccc(-n2cc(-c3noc(-c4ccc[nH]4)n3)nn2)c1 27.5 µM
CCC(C)Oc1cccc(C(=O)Nc2ccc(CN3CCOCC3)cc2)c1 (stereo unspecified) 1.74 µM
c1cncc(-c2nc(Nc3ccc4c(c3)OCCO4)c3ccccc3n2)c1 34.9 µM
Cc1ccc(S(=O)(=O)c2cnc(SCC(=O)Nc3ccc(Cl)cc3)nc2N)cc1C 39.5 µM
O=c1ccc(-c2noc(Cc3cccc(Cl)c3)n2)c[nH]1 0.0563 µM
CSc1nccc(-c2ccc(F)cc2)c1C#N 46.2 µM
N#Cc1ccc(NC(=O)Nc2cccn(Cc3ccccc3F)c2=O)cc1 0.235 µM
Cc1ccc(-c2cn(CC(=O)N3CCN(c4ccccn4)CC3)c(=O)o2)cc1 16.5 µM
COC(=O)c1ccc(Cn2cnc3ccc(F)cc3c2=O)o1 3.97 µM
O=C(CCc1nnc2n(Cc3ccccc3)c(=O)c3ccccc3n12)N1CCN(c2ccccn2)CC1 2.98 µM
CCOc1ccc(NC(=O)Cn2c(=O)n(CC(=O)NCc3ccc(C)cc3)c(=O)c3sccc32)cc1 8.61 µM
Cc1c(-c2nn3c(-c4ccco4)nnc3s2)cccc1[N+](=O)[O-] 2.49 µM
O=C(Nc1ccc2c(c1)OCCO2)c1ccc(N2CCCC2=O)cc1 7.18 µM
Cc1noc(-c2cc(=O)n(CC(=O)NCc3ccccc3)c3ccccc23)n1 25.1 µM
COc1cccc(NC(=O)c2ccc(-c3csc(C)n3)cc2)c1 6.69 µM
CS(=O)(=O)c1ccc(NC(=O)C2CN(c3nc4c(F)cccc4s3)C2)cc1 21.3 µM
Cc1cccc(-n2ccnc(SCC(=O)Nc3ccc(Cl)cc3F)c2=O)c1 3.91 µM
Cc1cc(C)c(NC(=O)CSc2nc3nccnc3c(=O)n2Cc2ccccc2Cl)c(C)c1 3.33 µM
CCc1ccc(NC(=O)CN=C2NS(=O)(=O)C(c3ccc(CC)cc3)=C2C)cc1 21.7 µM
COc1cccc(NC(=O)C2C3C=CC4(O3)C2C(=O)N(CCc2ccccc2Cl)C4C(=O)NC2CCCCC2)c1 (stereo unspecified) 26.1 µM
COc1cc2c(cc1OC)-c1cc(Nc3ccc(Br)cc3)nc(=O)n1CC2 1.84 µM
O=S(=O)(Nc1ccc(O)cc1)c1ccc2oc3ccc(S(=O)(=O)Nc4ccc(O)cc4)cc3c2c1 22.3 µM
Cc1cccc(NC(=O)CN2C(=O)COc3cc(S(=O)(=O)N4CCCC4)ccc32)c1C 21 µM
O=C(Nc1cccc(Cl)c1)N1CCN(c2cc(C(F)(F)F)ccn2)CC1 25.1 µM
Cc1ccc(NC(=O)c2cnc(N3CCOCC3)nc2)cc1F 33.3 µM
Nc1nc(OCc2ccccc2)c2[nH]c(/C=C/c3cccs3)nc2n1 24.9 µM
O=C(NC1CCCCC1)c1cc2c(cn1)[nH]c1ccccc12 2.51 µM
O=C(CC1C(=O)Nc2nc(-c3ccccc3)nn21)Nc1cccc2ccccc12 (stereo unspecified) 15 µM
COc1ccc2[nH]c3c(c2c1)CCN1C(=O)N(c2ccccc2C(=O)NCc2ccccc2)C(=O)[C@]31C 46.4 µM
COc1ccc(CCn2cnc3c4ccccc4n(C)c3c2=O)cc1OC 8.44 µM
CN(C)c1ccc(/C=N/NC(=O)c2ccc(Cl)cc2)cc1 16.7 µM
CCc1ccc(C(C)NC(=O)C2CCN(c3ccc4nncn4n3)CC2)cc1 (stereo unspecified) 16.4 µM
Cc1nc(-c2noc3ccc(C(=O)Nc4cccnc4)cc23)cs1 15.7 µM
Cc1cc(N2CCN(c3ncccn3)CC2)nc2ccc(NC(=O)c3ccncc3)cc12 7.27 µM
O=C(Nc1ccc(N2CCOCC2)cc1)c1cc(=O)[nH]c2ccccc12 25.4 µM
CN(C)c1cc(-n2cnc(C(=O)NCc3ccccc3Cl)c2)ncn1 19.8 µM
COc1ccc(CN=C2NS(=O)(=O)C(c3ccc(F)cc3)=C2C)cc1OC 23 µM
Cc1ccc(CSC2=NS(=O)(=O)c3ccccc3N2)cc1 16.2 µM
O=C(Nc1cccc(C(F)(F)F)c1)N1CCCn2c(nc3ccccc32)C1 20.3 µM
Cc1ccc(C(=O)Nc2nc3n(n2)C(c2ccccc2)CC(=O)N3)cc1 (stereo unspecified) 19.4 µM
O=C(Nc1cc(F)c2nc(N3CCOCC3)ccc2c1)C1CC1 44.2 µM
Cc1ccc(S(=O)(=O)N2CCCCC2)cc1NC(=O)Cc1cccc(F)c1 5.05 µM
Cc1ccc(C)c(-c2cc3c(=O)n(Cc4noc(CN5CCCCC5)n4)ccn3n2)c1 4.49 µM
COc1ccc2c(c1)CCc1c-2n[nH]c1C(=O)Nc1cc(C)on1 12.2 µM
CCOc1ccc(NC(=O)c2cc(-c3ccccc3)c(N3CCOCC3)s2)cc1 14 µM
